Measurements published in US20150329558A1, “FUSED HETEROCYCLIC COMPOUNDS AS ION CHANNEL MODULATORS” (Gilead Sciences, Inc., priority 2011, published 2015).

Key:
[1] = Microsomal stability assay, human; format: in vitro ADME; settings: metabolic stability, human liver microsomes 0.5 mg/mL, substrate 3 uM
Method: (§1) The micorsomal stability assay is generally performed as follows. Format: 15 compounds (and 1 control verapamil) in 3 different species in duplicate sets Substrate: 3 uM Protein concentration: 0.5 mg/mL (for dog, rat, and human liver microsomes) Cofactor: 1×NADPH-Regenerating system Time-points: 2, 12, 25, 45, and 65 minutes [table] Sample preparation: 25 uL at each timepoint is added to plate with 225 uL quenching solution (50% MeOH, 25% ACN, 25% H2O, and 50 nM […]). After plates are vortexed, centrifuge for 30 minutes. Microsomal solutions: take 400 uL of 20 mg/mL microsomes and add to 13,680 uL 100 mM KPO4 buffer. Using an 8-channel, add 650 uL of this solution to the designated two columns on a short plate. The order should be dog microsomes in columns 1 and 2, rat microsomes in columns 3 and 4, and human microsomes in columns 5 and 6. Keep on ice before use. Place this plate in incubator 1 on the TECAN countertop.

[2] = biological target: wild-type human cardiac sodium channel, hNav1.5 (late INa) (Homo sapiens, UniProt Q14524); experiment: Late INa screening assay (QPatch whole cell patch clamp); format: cell-based; settings: percent block of late INa, compound at 1 μM, 10 μM Tefluthrin, HEK293 hNav1.5; read-out: Late INa 1 μM
Chain of wild-type human cardiac sodium channel, hNav1.5 (late INa) (Q14524 whole entry): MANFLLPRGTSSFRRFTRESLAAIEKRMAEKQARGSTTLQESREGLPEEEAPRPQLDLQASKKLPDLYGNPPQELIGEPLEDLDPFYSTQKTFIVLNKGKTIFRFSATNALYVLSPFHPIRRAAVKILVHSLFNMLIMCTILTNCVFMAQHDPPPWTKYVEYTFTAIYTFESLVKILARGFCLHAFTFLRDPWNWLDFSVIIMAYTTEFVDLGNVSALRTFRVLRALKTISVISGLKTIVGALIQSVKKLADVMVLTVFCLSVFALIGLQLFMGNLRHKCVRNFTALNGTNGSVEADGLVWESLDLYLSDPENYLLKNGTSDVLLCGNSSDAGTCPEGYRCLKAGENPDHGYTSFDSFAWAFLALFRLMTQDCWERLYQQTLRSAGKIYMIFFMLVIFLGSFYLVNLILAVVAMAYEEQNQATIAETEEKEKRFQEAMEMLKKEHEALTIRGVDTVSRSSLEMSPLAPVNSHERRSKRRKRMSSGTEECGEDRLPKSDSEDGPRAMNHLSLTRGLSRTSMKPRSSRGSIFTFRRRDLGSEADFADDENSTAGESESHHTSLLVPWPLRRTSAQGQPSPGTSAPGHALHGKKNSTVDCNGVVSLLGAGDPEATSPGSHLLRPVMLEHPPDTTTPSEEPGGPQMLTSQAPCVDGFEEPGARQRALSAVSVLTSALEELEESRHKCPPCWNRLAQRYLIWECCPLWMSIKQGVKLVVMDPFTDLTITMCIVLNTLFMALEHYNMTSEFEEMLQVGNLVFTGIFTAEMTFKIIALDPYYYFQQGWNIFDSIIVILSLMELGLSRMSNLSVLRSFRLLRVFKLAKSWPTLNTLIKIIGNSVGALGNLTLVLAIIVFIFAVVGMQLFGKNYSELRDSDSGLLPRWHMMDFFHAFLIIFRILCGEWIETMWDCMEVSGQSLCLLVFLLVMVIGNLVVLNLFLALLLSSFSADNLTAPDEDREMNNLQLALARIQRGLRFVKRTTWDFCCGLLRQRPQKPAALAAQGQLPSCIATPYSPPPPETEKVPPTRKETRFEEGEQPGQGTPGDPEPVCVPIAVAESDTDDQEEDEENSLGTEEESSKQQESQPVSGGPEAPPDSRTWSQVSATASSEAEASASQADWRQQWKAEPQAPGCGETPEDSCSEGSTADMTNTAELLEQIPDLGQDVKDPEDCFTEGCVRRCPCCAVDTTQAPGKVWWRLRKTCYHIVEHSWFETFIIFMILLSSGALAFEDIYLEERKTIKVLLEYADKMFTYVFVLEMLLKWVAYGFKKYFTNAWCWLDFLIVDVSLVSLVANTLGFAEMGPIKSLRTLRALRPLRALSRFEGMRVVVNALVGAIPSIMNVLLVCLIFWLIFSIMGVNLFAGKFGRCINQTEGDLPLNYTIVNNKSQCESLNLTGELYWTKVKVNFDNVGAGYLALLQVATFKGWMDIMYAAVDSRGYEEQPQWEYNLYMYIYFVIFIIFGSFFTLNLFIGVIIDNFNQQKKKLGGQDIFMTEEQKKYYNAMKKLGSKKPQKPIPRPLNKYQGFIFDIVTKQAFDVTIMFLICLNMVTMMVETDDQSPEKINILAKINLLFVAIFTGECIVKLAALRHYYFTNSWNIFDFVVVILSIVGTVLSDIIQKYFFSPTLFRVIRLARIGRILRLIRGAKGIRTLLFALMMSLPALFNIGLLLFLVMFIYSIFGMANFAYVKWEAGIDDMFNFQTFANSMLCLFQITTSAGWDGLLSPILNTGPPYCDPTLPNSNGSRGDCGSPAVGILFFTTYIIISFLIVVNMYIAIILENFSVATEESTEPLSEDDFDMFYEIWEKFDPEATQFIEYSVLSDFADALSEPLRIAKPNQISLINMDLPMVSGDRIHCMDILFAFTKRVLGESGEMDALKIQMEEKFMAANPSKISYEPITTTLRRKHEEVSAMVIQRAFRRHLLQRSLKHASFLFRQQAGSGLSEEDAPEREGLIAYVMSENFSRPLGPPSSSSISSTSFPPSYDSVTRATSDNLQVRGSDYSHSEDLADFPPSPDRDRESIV
Method: The late sodium current (Late INa) and peak sodium current (Peak INa) assays are performed on an automated electrophysiology platform, QPatch 16× (Sophion Bioscience, Copenhagen, Denmark), which uses the whole cell patch clamp technique to measure currents through the cell membrane of up to 16 cells at a time. The assay uses an HEK293 (human embryonic kidney) cell line heterologously expressing the wild-type human cardiac sodium channel, hNav1.5, purchased from Millipore (Billerica, Mass.). No beta subunits were coexpressed with the Na channel alpha subunit. Cells are maintained with standard tissue culture procedures and stable channel expression is maintained with 400 μg/mL Geneticin in the culture medium. […] Experiments are carried out at 23-25° C. For both the Late INa and Peak INa assays, series resistance compensation is set to 100% and series resistance and whole-cell compensation are performed automatically. Currents are digitized at 25 kHz and low-pass filtered at 12 kHz and 10 kHz for the late and peak INa assays, respectively. Currents through open sodium channels are automatically recorded and stored in the Sophion Bioscience Oracle database (Sophion Bioscience, Copehagen, Denmark). Analysis is performed using QPatch Assay and database software and data are compiled in Excel. Compound stocks are routinely made by the Gilead Sample Bank in plastic vials to 10 mM in dimethyl sulfoxide (DMSO). In some cases, when compounds are not soluble in DMSO, they are made in 100% ethanol. Stocks are sonicated as necessary. […] The intracellular solution used to perfuse the inside of the cells for both the Late INa and Peak INa assays contains: 120 mM CsF, 20 mM CsCl, 5 mM EGTA, 5 mM HEPES and pH adjusted to 7.4 with CsOH. Compounds are diluted in extracellular solution to 1 μM in glass vials and then transferred to glass well plates before robotic addition to the cells. […] For the Late INa assay, sodium channels are activated every 10 seconds (0.1 Hz) by depolarizing the cell membrane to −20 mV for 250 milliseconds (ms) from a holding potential of −120 mV. In response to a −20 mV voltage step, typical hNav1.5 sodium currents activate rapidly to a peak negative current and then inactivate nearly completely within 3-4 ms. All compounds were tested to determine their activity in blocking the late sodium current. Late INa was generated by adding 10 μM Tefluthrin (pyrethroid) to the extracellular solution while recording Na currents. To confirm the block of late INa observed using the automated screening method, a second late INa enhancer (ATX-II) and the manual patch clamp method were used. ATX-II and tefluthrin occupy distinct, non-overlapping binding sites and modify Na^+ channel function differently to increase late INa. […] For the purposes of the screening, late INa is defined as the mean current between 225 ms and 250 ms after stepping to −20 mV to activate Na channels. […] Results are reported as percent block of late INa.

[3] = Microsomal stability assay, dog; format: in vitro ADME; settings: metabolic stability, dog liver microsomes 0.5 mg/mL, substrate 3 uM
Method: as §1

[4] = Microsomal stability assay, rat; format: in vitro ADME; settings: metabolic stability, rat liver microsomes 0.5 mg/mL, substrate 3 uM
Method: as §1

| SMILES | MS Human THalf [1] [min] | inhibition at 1 µM [2] [%] | MS Dog THalf [3] [min] | MS Rat THalf [4] [min] |
| --- | --- | --- | --- | --- |
| Cc1nc(Cn2nnc3ccc(-c4ccc(OC(F)(F)F)cc4)cc3c2=O)no1 [II-6, 3-((5-methyl-1,2,4-oxadiazol-3-yl)methyl)-6-(4-(trifluoromethoxy)phenyl)benzo[d][1,2,3]triazin-4(3H)-one] | 164 | 43 | 123 | 144 |
| O=c1c2cc(-c3ccc(OC(F)(F)F)cc3)ccc2nnn1CCc1ccccn1 [II-15, 3-(2-(pyridin-2-yl)ethyl)-6-(4-(trifluoromethoxy)phenyl)benzo[d][1,2,3]triazin-4(3H)-one] | 33 | 71 | 23 | 19 |
| CN(C(=O)N1CCc2ccc(-c3ccc(C(F)(F)F)cc3)cc2C1)c1ccccc1 [IX-50, N-methyl-N-phenyl-7-(4-(trifluoromethyl)phenyl)-3,4-dihydroisoquinoline-2(1H)-carboxamide] | 61 | 29 | 96 | 9 |
| Cc1nc(Cn2ncc3ccc(-c4ccc(OC(F)(F)F)cc4)cc3c2=O)no1 [III-3, 2-((5-methyl-1,2,4-oxadiazol-3-yl)methyl)-7-(4-(trifluoromethoxy)phenyl)phthalazin-1(2H)-one] | > 395 | 42 | 122 | 104 |
| Cc1cc(C)nc(Cn2ncc3ccc(-c4ccc(OC(F)(F)F)cc4)cc3c2=O)n1 [III-22] | 252 | 35 | 191 | 86 |
| Cn1ccnc1C(=O)N1CCc2ccc(-c3ccc(C(F)(F)F)cc3)cc2C1 [IX-80, (1-methyl-1H-imidazol-2-yl)(7-(4-(trifluoromethyl)phenyl)-3,4-dihydroisoquinolin-2(1H)-yl)methanone] | 170 | 40 | 197 | 7 |
| O=C1c2cc(-c3ccc(OC(F)(F)F)cc3)ccc2CCN1Cc1ccccn1 [IX-2, 2-(pyridin-2-ylmethyl)-7-(4-(trifluoromethoxy)phenyl)-3,4-dihydroisoquinolin-1(2H)-one] | 65 | 40 | 88 | 106 |
| Cc1nonc1Cn1cnc2ccc(-c3ccc(OC(F)(F)F)cc3)cc2c1=O [IV-3, 3-((4-methyl-1,2,5-oxadiazol-3-yl)methyl)-6-(4-(trifluoromethoxy)phenyl)quinazolin-4(3H)-one] | 366 | 37 | 54 | 219 |
| O=c1c2cc(-c3ccc(OC(F)(F)F)cc3)ccc2nnn1CCn1ccc(C(F)(F)F)n1 [II-52, 6-(4-(trifluoromethoxy)phenyl)-3-(2-(3-(trifluoromethyl)-1H-pyrazol-1-yl)ethyl)benzo[d][1,2,3]triazin-4(3H)-one] | 319 | 32 | 76 | 118 |
| O=c1c2cc(-c3ccc(OC(F)(F)F)cc3)ccc2nnn1Cc1coc(C2CCC2)n1 [II-98, 3((2-cyclobutyloxazol-4-yl)methyl)-6-(4-(trifluoromethoxy)phenyl)benzo[d][1,2,3]triazin-4(3H)-one] | 31 | 41 | 34 | 16 |
| O=c1c2cc(-c3ccc(OC(F)(F)F)cc3)ccc2cnn1Cc1cccnc1Br [III-14, 2-((2-bromopyridin-3-yl)methyl)-7-(4-(trifluoromethoxy)phenyl)phthalazin-1 (2H)-one] | 251 | 39 | 77 | 55 |
| O=c1c2cc(-c3ccc(OC(F)(F)F)cc3)ccc2cnn1CCn1cccc1 [III-10, 2-(2-(1H-pyrrol-1-yl)ethyl)-7-(4-(trifluoromethoxy)phenyl)phthalazin-1(2H)-one] | 41 | 33 | 18 | 18 |
| O=C(Cn1nnc2ccc(-c3ccc(OC(F)(F)F)cc3)cc2c1=O)N1CCN(c2ncccn2)CC1 [II-41, 3-(2-oxo-2-(4-(pyrimidin-2-yl)piperazin-1-yl)ethyl)-6-(4-(trifluoromethoxy)phenyl)benzo[d][1,2,3]triazin-4(3H)-one] | 28 | 25 | 80 | 16 |
| COc1ncc(-c2cnn(CCn3ncc4ccc(-c5ccc(OC(F)(F)F)cc5)cc4c3=O)c2)cn1 [III-34, 2-(2-(4-(2-methoxypyrimidin-5-yl)-1H-pyrazol-1-yl)ethyl)-7-(4-(trifluoromethoxy)phenyl)phthalazin-1 (2H)-one] | 50 | – | 46 | 41 |
| O=C(c1ncccn1)N1CCc2ccc(-c3ccc(Cl)c(F)c3)cc2C1 [IX-24, (7-(4-chloro-3-fluorophenyl)-3,4-dihydroisoquinolin-2(1H)-yl)(pyrimidin-2-yl)methanone] | – | 19 | – | – |
| Cc1nn(C)c(C)c1C(=O)N1CCc2ccc(-c3ccc(C(F)(F)F)cc3)cc2C1 [IX-26, (7-(4-(trifluoromethyl)phenyl)-3,4-dihydroisoquinolin-2(1H)-yl)(1,3,5-trimethyl-1H-pyrazol-4-yl)methanone] | – | 15 | – | – |
| O=c1c2cc(-c3ccc(OC(F)(F)F)cc3)ccc2nnn1Cc1ccccc1 [II-42, 3-benzyl-6-(4-(trifluoromethoxy)phenyl)benzo[d][1,2,3]triazin-4(3H)-one] | – | 23 | – | – |
| O=C(N1CCOCC1)N1CCc2ccc(-c3ccc(C(F)(F)F)cc3)cc2C1 [IX-52, morpholino(7-(4-(trifluoromethyl)phenyl)-3,4-dihydroisoquinolin-2(1H)-yl)methanone] | – | 26 | – | – |
| CCOC(=O)Cn1cc(C(=O)N2CCc3ccc(-c4ccc(C(F)(F)F)cc4)cc3C2)nn1 [IX-119, ethyl 2-(4-(7-(4-(trifluoromethyl)phenyl)-1,2,3,4-tetrahydroisoquinoline-2-carbonyl)-1H-1,2,3-triazol-1-yl)acetate] | – | 15 | – | – |
| O=C1c2cc(C#Cc3ccc(C(F)(F)F)cc3)ccc2CCN1Cc1ncccn1 [IX-4] | – | 20 | – | – |
| CC1CN(C(=O)N2CCc3ccc(-c4ccc(C(F)(F)F)cc4)cc3C2)C1 [IX-107, (3-methylazetidin-1-yl)(7-(4-(trifluoromethyl)phenyl)-3,4-dihydroisoquinolin-2(1H)-yl)methanone] | – | 24 | – | – |
| Cc1cc(C(=O)N2CCc3ccc(-c4ccc(C(F)(F)F)cc4)cc3C2)nc(N)n1 [IX-34, (2-amino-6-methylpyrimidin-4-yl)(7-(4-(trifluoromethyl)phenyl)-3,4-dihydroisoquinolin-2(1H)-yl)methanone] | – | 16 | – | – |
| CS(=O)(=O)C1CN(C(=O)N2CCc3ccc(-c4ccc(C(F)(F)F)cc4)cc3C2)C1 [IX-104, (3-(methylsulfonyl)azetidin-1-yl)(7-(4-(trifluoromethyl)phenyl)-3,4-dihydroisoquinolin-2(1H)-yl)methanone] | – | 20 | – | – |
